Structures can show the parent of a compound that is named as a salt.
How the values were obtained:
M1 muscarinic receptor = molecular target: T1, M1 muscarinic receptor (Homo sapiens, UniProt P11229); assay: Functional mobilization of intracellular calcium (FLIPR), M1-CHO cells; assay type: cell-based; details: for Emax: 100% efficacy is the maximum response obtained using Carbachol as a control; for M1 Activity: M1-CHO cells, FLIPR calcium mobilization
T1 construct: expressed in transfected cells; host or cells: CHO (M1-CHO)
T1 sequence (P11229 1-460): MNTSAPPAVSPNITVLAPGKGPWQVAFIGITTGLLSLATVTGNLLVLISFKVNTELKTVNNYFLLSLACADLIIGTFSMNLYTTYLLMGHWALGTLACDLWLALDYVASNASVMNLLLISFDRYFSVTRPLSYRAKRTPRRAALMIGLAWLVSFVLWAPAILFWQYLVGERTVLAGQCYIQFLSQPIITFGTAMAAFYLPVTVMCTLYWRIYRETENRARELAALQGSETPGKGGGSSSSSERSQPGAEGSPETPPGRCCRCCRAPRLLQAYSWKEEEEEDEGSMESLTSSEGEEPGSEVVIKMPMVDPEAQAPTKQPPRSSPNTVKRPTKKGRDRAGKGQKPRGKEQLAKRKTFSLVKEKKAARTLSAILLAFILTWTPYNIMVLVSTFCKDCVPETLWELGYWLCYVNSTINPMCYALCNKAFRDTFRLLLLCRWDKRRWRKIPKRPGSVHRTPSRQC
Method in brief: (§1)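 Calcium flux recorded 60 s (ex 488, em 540 nm) in dye-loaded M1- or M4-CHO cells in pH 7.4 buffer with 1 mM probenecid. Inhibition measured against carbachol EC80 after 15 min compound pre-incubation or co-addition; agonism measured by compound addition alone. Final DMSO 0.5%.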

M4 muscarinic receptor = molecular target: T2, M4 muscarinic receptor (Homo sapiens, UniProt P08173); assay: Functional mobilization of intracellular calcium (FLIPR), M4-CHO cells; assay type: cell-based; details: for Emax: 100% efficacy is the maximum response obtained using Carbachol as a control; for M4 Activity: M4-CHO cells, FLIPR calcium mobilization
T2 construct: expressed in transfected cells; host or cells: CHO (M4-CHO)
T2 sequence (P08173 1-479): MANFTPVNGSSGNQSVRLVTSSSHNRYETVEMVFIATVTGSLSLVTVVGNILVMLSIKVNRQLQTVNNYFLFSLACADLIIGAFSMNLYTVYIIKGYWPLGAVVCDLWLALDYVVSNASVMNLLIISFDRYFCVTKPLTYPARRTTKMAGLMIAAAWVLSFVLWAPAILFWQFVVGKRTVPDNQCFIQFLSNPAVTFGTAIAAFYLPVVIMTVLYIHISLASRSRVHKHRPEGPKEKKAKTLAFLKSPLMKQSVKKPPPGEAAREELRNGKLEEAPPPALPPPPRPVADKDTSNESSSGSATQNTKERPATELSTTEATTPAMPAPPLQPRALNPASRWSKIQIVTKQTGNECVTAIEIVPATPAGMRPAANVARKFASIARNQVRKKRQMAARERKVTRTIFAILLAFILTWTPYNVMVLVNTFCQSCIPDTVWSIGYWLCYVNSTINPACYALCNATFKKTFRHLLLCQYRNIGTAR
Method in brief: as §1

SMILES	Emax (M1 muscarinic receptor) [%]	M1 Activity (M1 muscarinic receptor)	Emax (M4 muscarinic receptor) [%]	M4 Activity (M4 muscarinic receptor)
CCOC(=O)N1CCC(CN2CCC3(CC2)CN(C(=O)OC(C)C)Cc2ccccc23)CC1 [compound 309]	25 to 100	+++ (activity was measured to be less than 1.0 μM)	25 to 100	+++ (activity was measured to be less than 1.0 μM)
CCOC(=O)N1CCC(N2CCC3(CC2)CN(C2CCCCC2C)Cc2ccccc23)CC1 (stereo not shown) [compound 123]	25 to 100	+++ (activity was measured to be less than 1.0 μM)	25 to 100	+++ (activity was measured to be less than 1.0 μM)
CCCCOC(=O)N1Cc2ccccc2C2(CCN(C3CC4CCC(C3)N4C(=O)OCC)CC2)C1 (stereo not shown) [compound 148]	25 to 100	+++ (activity was measured to be less than 1.0 μM)	25 to 100	+++ (activity was measured to be less than 1.0 μM)
CCOC(=O)N1CCC(N2CCC3(CC2)CN(C(=O)OCC)Cc2ccccc23)CC1 [compound 120]	25 to 100	+++ (activity was measured to be less than 1.0 μM)	25 to 100	+++ (activity was measured to be less than 1.0 μM)
CCOC(=O)N1C2CCC1CC(N1CCC3(CC1)CN(S(=O)(=O)c1ccccc1Cl)Cc1ccccc13)C2 (stereo not shown) [compound 69]	25 to 100	+++ (activity was measured to be less than 1.0 μM)	25 to 100	+++ (activity was measured to be less than 1.0 μM)
Cc1ccc2c(c1)C1(CCN(C3CCOCC3)CC1)OC2=O [compound 180]	25 to 100	+ (activity was measured to be greater than 5.0 μM)	25 to 100	+ (activity was measured to be greater than 5.0 μM)
CSC(C)CCN1CCC2(CC1)NC(=O)c1ccccc12 (stereo not shown) [compound 323]	< 25	+ (activity was measured to be greater than 5.0 μM)	< 25	+ (activity was measured to be greater than 5.0 μM)
CCOC(=O)N1CCC(N2CCC3(CC2)CN(C(=O)OCC(C)C)Cc2ccccc23)CC1 [compound 186]	25 to 100	+++ (activity was measured to be less than 1.0 μM)	25 to 100	+++ (activity was measured to be less than 1.0 μM)
CCOC(=O)N1C2CCC1CC(N1CCC3(CC1)CN(C(C)=O)Cc1ccccc13)C2 (stereo not shown) [compound 197, ethyl 3-(2-acetyl-2,3-dihydro-1H-spiro[isoquinoline-4,4′-piperidine]-1′-yl)-8-azabicyclo[3.2.1]octane-8-carboxylate]	25 to 100	+++ (activity was measured to be less than 1.0 μM)	25 to 100	+++ (activity was measured to be less than 1.0 μM)
CCOC(=O)N1C2CCC1CC(N1CCC3(CC1)CN(C(=O)c1cccs1)Cc1ccccc13)C2 (stereo not shown) [compound 146]	25 to 100	+++ (activity was measured to be less than 1.0 μM)	25 to 100	+++ (activity was measured to be less than 1.0 μM)
CC(=O)N1Cc2ccccc2C2(CCN(Cc3cc4ccccc4s3)CC2)C1 [compound 191]	< 25	+ (activity was measured to be greater than 5.0 μM)	< 25	+ (activity was measured to be greater than 5.0 μM)
CCOC(=O)N1CCC(CN2CCC3(CC2)OC(=O)c2ccc(C)cc23)CC1 [compound 145]	25 to 100	+++ (activity was measured to be less than 1.0 μM)	25 to 100	+++ (activity was measured to be less than 1.0 μM)
Cc1cc(C(=O)N2Cc3ccccc3C3(CCN(C4CC5CCC(C4)N5C(=O)O[C@@H]4CCOC4)CC3)C2)nn1C (stereo partly shown) [compound 210]	25 to 100	+++ (activity was measured to be less than 1.0 μM)	25 to 100	+++ (activity was measured to be less than 1.0 μM)
CCOC(=O)N1CC(CN2CCC3(CC2)CN(C(C)=O)Cc2ccccc23)C1 [compound 1]	25 to 100	++ (activity was measured to be from 1.0 μM to 5.0 μM)	< 25	++ (activity was measured to be from 1.0 μM to 5.0 μM)
CCOc1ccc(CN2CCC3(CC2)CN(C(C)=O)Cc2ccccc23)cc1 [compound 137]	< 25	+ (activity was measured to be greater than 5.0 μM)	< 25	+ (activity was measured to be greater than 5.0 μM)
CCOC(=O)N1CCC(N2CCC3(CC2)CN(C(=O)C2(C)CC2)Cc2ccccc23)CC1 [compound 295]	25 to 100	++ (activity was measured to be from 1.0 μM to 5.0 μM)	< 25	++ (activity was measured to be from 1.0 μM to 5.0 μM)
O=C1c2ccccc2C2(CCN(C3CCCCCC3)CC2)N1Cc1ccccc1 [compound 347]	25 to 100	+ (activity was measured to be greater than 5.0 μM)	< 25	+ (activity was measured to be greater than 5.0 μM)
CC(=O)N1Cc2ccccc2C2(CCN(C3CC4CCC(C3)N4C(=O)O[C@@H]3CCOC3)CC2)C1 (stereo partly shown) [compound 13]	25 to 100	+++ (activity was measured to be less than 1.0 μM)	25 to 100	+++ (activity was measured to be less than 1.0 μM)
CCOC(=O)N1CCC(CN2CCC3(CC2)CN(S(=O)(=O)N(C)C)Cc2ccccc23)CC1 [compound 356]	25 to 100	+++ (activity was measured to be less than 1.0 μM)	25 to 100	+++ (activity was measured to be less than 1.0 μM)
CCOC(=O)N1CCC(N2CCC3(CC2)CN(CCC(C)C)Cc2ccccc23)CC1 [compound 313, ethyl 4-(2-isopentyl-2,3-dihydro-1H-spiro[isoquinoline-4,4′-piperidine]-1′-yl)piperidine-1-carboxylate]	> 100	+++ (activity was measured to be less than 1.0 μM)	25 to 100	+++ (activity was measured to be less than 1.0 μM)
O=C(C1CC1)N1Cc2ccccc2C2(CCN(C3CC4CCC(C3)N4C(=O)OC3CCC3)CC2)C1 (stereo not shown) [compound 102]	25 to 100	+++ (activity was measured to be less than 1.0 μM)	25 to 100	+++ (activity was measured to be less than 1.0 μM)
CCOC(=O)N1CCC(CN2CCC3(CC2)CN(C(C)=O)Cc2ccccc23)CC1 [compound 198, Ethyl 4-((2-acetyl-2,3-dihydro-1H-spiro[isoquinoline-4,4′-piperidine]-1′-yl)methyl)piperidine-1-carboxylate hydrochloride]	25 to 100	+++ (activity was measured to be less than 1.0 μM)	25 to 100	+++ (activity was measured to be less than 1.0 μM)
CCON=C1CCC(N2CCC3(CC2)CN(C(C)=O)Cc2ccccc23)CC1 (stereo not shown) [compound 196, 1-(1′-(4-(ethoxyimino)cyclohexyl)-1H-spiro[isoquinoline-4,4′-piperidine]-2(3H)-yl)ethanone]	25 to 100	+++ (activity was measured to be less than 1.0 μM)	25 to 100	+++ (activity was measured to be less than 1.0 μM)
CCOC(=O)N1C2CCC1CC(N1CCC3(CC1)CN(S(=O)(=O)c1cccs1)Cc1ccccc13)C2 (stereo not shown) [compound 316]	25 to 100	+++ (activity was measured to be less than 1.0 μM)	25 to 100	+++ (activity was measured to be less than 1.0 μM)
CCOC(=O)N1CCC(N2CCC3(CC2)CN(C2CCCCCC2)Cc2ccccc23)CC1 [compound 172, Ethyl 4-(2-cycloheptyl-2,3-dihydro-1H-spiro[isoquinoline-4,4-piperidine]-1′-yl)piperidine-1-carboxylate]	25 to 100		25 to 100	
O=C(OC1CCC1)N1Cc2ccccc2C2(CCN(C3CC4CCC(C3)N4C(=O)O[C@H]3CCOC3)CC2)C1 (stereo partly shown) [compound 212]		+++ (activity was measured to be less than 1.0 μM)		+++ (activity was measured to be less than 1.0 μM)

Source: patent US7863449B2, “Modulators of muscarinic receptors” (Vertex Pharmaceuticals Incorporated, priority 2004, dated 2011)
